{
  "source": "patent EP0109354B1",
  "about": "“Biocidally active mixture” (priority 1982, dated 1984)",
  "key": {"[1]": {"system": "Schleimbildung und Algenbewuchs", "assay": "Efficacy in outdoor cooling circuits, visual assessment of growth on the plates", "details": "phosphonium compound alone, same concentration and frequency (21 ppm twice a week); stated conditionally ('würde')", "excerpt": "Untersuchung der Wirksamkeit in Kühlkreisläufen\nDie im Freien stehenden (natürliche Sonneneinstrahlung, Staubeinfall, Witterungseinflüsse) Kühlkreisläufe bestanden aus: • a) einem Kunststoffass mit einem Volumen von 113 I und einem Überlauf • b) einer Pumpe (21 1/min bei 3 m Förderhöhe) • c) einem Kühlturm mit Oregon-(Splint), Oregon-(Kernholz), Eiche-, Fichte-, Asbestzement- und PVC-Platte\nDie Frischwasser-Zufuhr war so eingestellt, dass der Spritz- und Verdunstungsverlust ausgeglichen wurde und die Biocide in 24 h ungefähr 1:2 verdünnt wurden.\nDie Kühlkreisläufe sind durch den natürlichen Staubeinfall und nicht durch gezielte Beimpfung infiziert.\nZur Verhinderung der Schleimbildung und des Algenwuchses wurde der Kühlkreislauf mit 21 ppm 2mal/Woche einer Lösung von 45% der Verbindung 17 und 5% der Verbindung 13 in Wasser behandelt.\nAusgewertet wurde der Versuch durch visuelle Beobachtung des Bewuchses auf den Platten.\nDer unbehandelte Kreislauf zeigte schon nach 4 Wochen den ersten Algenbewuchs, die Hölzer waren nach 5 Monaten verschleimt und mit einer dicken Algenschicht überzogen. Der mit 21 ppm 2mal/Woche behandelte Kreislauf zeigte keinerlei Anzeichen von beginnender Schleimbildung und Algenbewuchs."}},
  "note": "Read-outs that look alike come from different tables or passages of the source.",
  "data": [
    {"compound": "CCCCCCCCCC[P+](CCCC)(CCCC)CCCC.[Cl-]", "note": "[Verbindung 18, Tri-n-butyl-n-decyl-phosphoniumchlorid]", "values": [
      {"measurement": "P-Verbindung (Mol-%) Endkonzentration", "setting": "Bsp. 5: as Beispiel 1, P compound 18 with Sn compound 2", "result": "19,2 Mol-%"}
    ]},
    {"compound": "CCCCCCCCCCCCCC[P+](CCCC)(CCCC)CCCC.[Cl-]", "note": "[Verbindung 17, Tri-n-butyl-tetradecyl-phosphoniumchlorid]", "values": [
      {"measurement": "Endkonzentration der P-Verbindung", "setting": "Beispiel 2: with 3,8 Mol-% of Vrb. 3 dissolved", "result": 15.3, "unit": "Mol-%"},
      {"measurement": "Endkonzentration der P-Verbindung", "setting": "Beispiel 3: with 2,9 Mol-% of Vrb. 2 dissolved", "result": "16,7 Mol-%"},
      {"measurement": "P-Verbindung (Mol-%) Endkonzentration", "setting": "Bsp. 4: as Beispiel 1, P compound 17 with Sn compound 8", "result": "13,1 Mol-%"},
      {"measurement": "Unterdrückung des Algenbewuchses", "setting": "[1]", "result": "nicht gänzlich unterdrücken"}
    ]},
    {"compound": "CCCCCCCCCCCC[P+](CCCC)(CCCC)CCCC.[Cl-]", "note": "[Verbindung 16, Tri-n-butyl-n-dodecyl-phosphoniumchlorid]", "values": [
      {"measurement": "P-Verbindung (Mol-%) Endkonzentration", "setting": "Bsp. 6: as Beispiel 1, P compound 16 with Sn compound 2", "result": "17,9 Mol-%"}
    ]},
    {"compound": "CCCCCCCCCCCCCC[P+](CCCC)(CCCC)CCCC.[Br-]", "note": "[Verbindung 19, Tri-n-butyl-n-tetradecylphosphoniumbromid]", "values": [
      {"measurement": "P-Verbindung (Mol-%) Endkonzentration", "setting": "Bsp. 7: as Beispiel 1, P compound 19 with Sn compound 2", "result": "15,9 Mol-%"}
    ]},
    {"compound": "Tri-n-butylzinnaphtenat [Verbindung 8]", "values": [
      {"measurement": "Sn-Verbindung (Mol-%) Endkonzentration", "setting": "Bsp. 4: as Beispiel 1, Sn compound 8 in solution of P compound 17", "result": "7,1 Mol-%"}
    ]}
  ]
}
